Laboratory results taken from the NIST ThermoML archive (doi:10.1021/je049807n).

What was measured:
[1] = for surface tension liquid-gas: Pendant drop shape; for mass density: 101.33 kPa, Liquid
[2] = xn = mol fraction of the nth substance listed; conditions: 298.15 K; for surface tension liquid-gas: Pendant drop shape; for mass density: 101.3 kPa, Liquid

Cc1cc(C)cc(C)c1 [1,3,5-trimethylbenzene]
[1], 298.15 K
Conditions | mass density [kg/m3] | surface tension liquid-gas [mN/m]
– | 861.03 | 28.09

Cc1ccc(C)c(C)c1 [1,2,4-trimethylbenzene] + CC(C)CO
[2]
Conditions | mass density [kg/m3] | surface tension liquid-gas [mN/m]
x2 = 0.0509 | 868.47 | –
x2 = 0.1004 | 865.43 | 28.42
x2 = 0.153 | 862.28 | –
x2 = 0.2018 | 859.33 | 27.54
x2 = 0.249 | 856.45 | –
x2 = 0.3002 | 853.23 | 26.7
x2 = 0.3487 | 850.09 | –
x2 = 0.3996 | 846.71 | 25.95
x2 = 0.4494 | 843.33 | –
x2 = 0.4995 | 839.86 | 25.29
x2 = 0.5488 | 836.34 | –
x2 = 0.6002 | 832.59 | 24.72
x2 = 0.6508 | 828.75 | –
x2 = 0.6989 | 824.99 | 24.16
x2 = 0.7484 | 820.99 | –
x2 = 0.8002 | 816.62 | 23.6
x2 = 0.8506 | 812.2 | –
x2 = 0.8984 | 807.85 | 22.98
x2 = 0.9496 | 802.94 | –

Cc1cc(C)cc(C)c1 [1,3,5-trimethylbenzene] + CC(C)CO
[2]
Conditions | mass density [kg/m3] | surface tension liquid-gas [mN/m]
x2 = 0.0512 | 858.13 | –
x2 = 0.1028 | 855.39 | 27.65
x2 = 0.1517 | 852.81 | –
x2 = 0.1994 | 850.26 | 27.21
x2 = 0.2514 | 847.49 | –
x2 = 0.3006 | 844.78 | 26.67
x2 = 0.3529 | 841.86 | –
x2 = 0.4019 | 839.03 | 26.09
x2 = 0.4494 | 836.25 | –
x2 = 0.4995 | 833.24 | 25.51
x2 = 0.548 | 830.3 | –
x2 = 0.6002 | 827.02 | 24.88
x2 = 0.6495 | 823.78 | –
x2 = 0.699 | 820.47 | 24.25
x2 = 0.7501 | 816.96 | –
x2 = 0.7998 | 813.38 | 23.61
x2 = 0.8504 | 809.65 | –
x2 = 0.9006 | 805.81 | 22.97
x2 = 0.9485 | 802.06 | –

CCCCO [butan-1-ol]
[1], 298.15 K
Conditions | mass density [kg/m3] | surface tension liquid-gas [mN/m]
– | 805.8 | 24.18

CCC(C)O (stereo unspecified) [butan-2-ol]
[1]
Conditions | mass density [kg/m3] | surface tension liquid-gas [mN/m]
298.15 K | 802.34 | 23.46
303.15 K | – | 22.14

Cc1ccc(C)c(C)c1 [1,2,4-trimethylbenzene] + CCCCO
[2]
Conditions | mass density [kg/m3] | surface tension liquid-gas [mN/m]
x2 = 0.0499 | 869.1 | –
x2 = 0.1013 | 866.38 | 28.81
x2 = 0.1492 | 863.89 | –
x2 = 0.2002 | 861.22 | 28.42
x2 = 0.2499 | 858.58 | –
x2 = 0.2992 | 855.92 | 28.04
x2 = 0.3503 | 853.09 | –
x2 = 0.4009 | 850.22 | 27.61
x2 = 0.4491 | 847.4 | –
x2 = 0.5012 | 844.25 | 27.15
x2 = 0.5498 | 841.19 | –
x2 = 0.5985 | 838.02 | 26.65
x2 = 0.6501 | 834.53 | –
x2 = 0.6987 | 831.1 | 26.08
x2 = 0.7499 | 827.34 | –
x2 = 0.8001 | 823.46 | 25.49
x2 = 0.8501 | 819.4 | –
x2 = 0.9002 | 815.1 | 24.86
x2 = 0.9503 | 810.56 | –

Cc1ccc(C)c(C)c1 [1,2,4-trimethylbenzene]
[1], 298.15 K
Conditions | mass density [kg/m3] | surface tension liquid-gas [mN/m]
– | 871.64 | 29.25

Cc1cc(C)cc(C)c1 [1,3,5-trimethylbenzene] + CC(C)(C)O
[2]
Conditions | mass density [kg/m3] | surface tension liquid-gas [mN/m]
x2 = 0.0502 | 857.2 | –
x2 = 0.1015 | 853.43 | 27.18
x2 = 0.1482 | 850.08 | –
x2 = 0.2007 | 846.28 | 26.24
x2 = 0.2509 | 842.63 | –
x2 = 0.2995 | 839.02 | 25.35
x2 = 0.3484 | 835.31 | –
x2 = 0.3995 | 831.37 | 24.51
x2 = 0.449 | 827.48 | –
x2 = 0.4992 | 823.4 | 23.75
x2 = 0.5483 | 819.43 | –
x2 = 0.6005 | 815.1 | 23.02
x2 = 0.6502 | 810.91 | –
x2 = 0.6987 | 806.81 | 22.32
x2 = 0.75 | 802.48 | –
x2 = 0.7995 | 798.32 | 21.61
x2 = 0.8501 | 793.99 | –
x2 = 0.9002 | 789.58 | 20.86
x2 = 0.9509 | 785.25 | –
